Values joined by “and” are separate entries in the source; they are usually repeats but may differ in a detail not shown here. Identical values can stand only once. Like-named read-outs stand apart in the source and are kept apart here.
Tests used:
[1] = system: S. mansoni newly transformed schistosomula (NTS); experiment: Parasite assay and phenotype scoring of newly transformed schistosomula; assay type: cell-based, Schistosoma mansoni; conditions: score 0 to 4, 4 most severe
Experimental: The NTS were exposed to 1 and 10 μM inhibitors, and the resulting phenotypes were graded 0 through 4 from the least to the most severe (Figure 4B).[25],[26] […] The investigated inhibitors were also tested for their cytotoxicity against four human cell lines over 72 h.
Newly transformed schistosomula (NTS) of S. mansoni were prepared by mechanically transforming infective larvae (cercariae) as described previously.[67] NTS (200–300 parasites) were incubated in 200 μL of Basch Medium 169[68] containing 5% heat-inactivated fetal bovine serum, 100 U/mL penicillin, and 100 μg/mL streptomycin at 5% CO2 and 37 °C.[67],[69] […] We use single word or phrase “descriptors”[35] to record changes in movement, shape, and translucence (Figure S2).
Figure S2. Antischistosomal activity, cytotoxicity, and plasma stability of selected vinyl sulfone inhibitors. A. Induction of phenotypic alterations by the inhibitors was determined with newly transformed schistosomula (NTS) of S. mansoni. The inhibitors were tested at 1 and 10 µM concentrations for 24, 48 and 72 h, and the resulting phenotypes are shown as descriptor s .2 B. Example […]
captured using a Zeiss Axiovert 40 C inverted microscope (10x objective) and a Zeiss AxioCam MRc digital camera controlled by AxioVision 40 (v. 4.8.1.0) software. Scale bar = 0.2 mm. C. […]

SmCB1 [2] = target: T1, SmCB1 (Schistosoma mansoni, UniProt Q8MNY2, T185A/T300A); experiment: biochemical; assay type: biochemical; conditions: pH 5.5, read-out: second order rate constant k2nd SmCB1
T1 sequence (Q8MNY2 87-340 T185A/T300A): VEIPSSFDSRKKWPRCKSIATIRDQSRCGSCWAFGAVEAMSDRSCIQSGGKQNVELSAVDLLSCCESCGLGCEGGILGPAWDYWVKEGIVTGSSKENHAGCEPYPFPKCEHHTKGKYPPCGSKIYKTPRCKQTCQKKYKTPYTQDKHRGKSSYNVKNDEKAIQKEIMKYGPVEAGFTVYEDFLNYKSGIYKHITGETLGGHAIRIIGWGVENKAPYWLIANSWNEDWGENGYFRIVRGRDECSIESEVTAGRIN
Experimental: (§1) (A) Sensitivity of SmCB1 and its human ortholog cathepsin B (HuCB) to inhibitors. The second order rate constants were measured in a kinetic activity assay with the fluorogenic peptide substrate Cbz–Phe–Arg–AMC at pH 5.5. […] Resulting phenotypes observed at three time points were graded by the severity score ranging from 0 to 4, with 4 being the most severe (see Figure S2A,B).
(§2) Inhibition measurements were performed in triplicates in 96-well microplates (100 μL assay volume) at 37 °C. […] The kinetics of product release was continuously monitored in an Infinite M1000 microplate reader (Tecan) at excitation and emission wavelengths of 360 and 465 nm, respectively. The IC50 values were determined by nonlinear regression using GraFit software. To determine the inhibition constant k2nd, the enzyme (40 pM SmCB1 or 60 pM HuCB) was added to a mixture of the fluorogenic substrate Cbz–Phe–Arg–AMC (20 μM for SmCB1 and 33 μM for HuCB) and an inhibitor (0–1 μM) in the assay buffer under assay conditions as above. The hydrolysis of substrate was monitored for 30 min in a microplate reader as described above. […] The second order rate constant, k2nd, was determined by fitting to the linear equation kobs = (k2nd[I])/(1 + [S]/KM), where [S] is the substrate concentration, [I] is the inhibitor concentration, and KM is the Michaelis–Menten constant.

SmCB1 [3] = experiment: biochemical; assay type: biochemical, Schistosoma mansoni; conditions: k2nd for SmCB1 to k2nd for human cathepsin B
Experimental: as §1, §2

human cathepsin B (HuCB) = target: T2, human cathepsin B (HuCB) (Homo sapiens, UniProt P07858); experiment: Second order rate constant (k2nd) of inhibition, human cathepsin B; assay type: biochemical; conditions: for second order rate constant k2nd HuCB: Cbz–Phe–Arg–AMC, pH 5.5, mean of triplicate; for kinact/KI: pH 5.5, read-out: second order rate constant k2nd HuCB
T2 construct: purchased Calbiochem
Experimental: as §1, §2

SmCB1 [4] = target: T1, SmCB1; experiment: SmCB1 kinetic inhibition assay (IC50) with fluorogenic substrate Cbz–Phe–Arg–AMC; assay type: biochemical; conditions: recombinant SmCB1, Cbz–Phe–Arg–AMC, pH 5.5; mean ± SE, triplicate; n.i.: no significant inhibition at 100 μM
Description: Thirty-four peptidomimetic vinyl sulfone analogs (including vinyl sulfonamides and vinyl sulfonate esters) were explored as potential inhibitors of SmCB1 to infer the structural requirements of the inhibitor-binding subsites in the enzyme active site cleft. The compound scaffold is defined by positions P3 through P1′, and the substitutions were selected to provide a high diversity at P2 and P1′ (Table 1). These two positions were recently reported to display large differences in the subsite interaction energy in response to their structural modifications.[10] The compounds were screened in vitro against recombinant SmCB1, and their IC50 values were determined using a kinetic inhibition assay with the fluorogenic substrate Cbz–Phe–Arg–AMC.
Inhibition measurements were performed in triplicates in 96-well microplates (100 μL assay volume) at 37 °C. […] The kinetics of product release was continuously monitored in an Infinite M1000 microplate reader (Tecan) at excitation and emission wavelengths of 360 and 465 nm, respectively. The IC50 values were determined by nonlinear regression using GraFit software. To determine the inhibition constant k2nd, the enzyme (40 pM SmCB1 or 60 pM HuCB) was added to a mixture of the fluorogenic substrate Cbz–Phe–Arg–AMC (20 μM for SmCB1 and 33 μM for HuCB) and an inhibitor (0–1 μM) in the assay buffer under assay conditions as above. The hydrolysis of substrate was monitored for 30 min in a microplate reader as described above. An observed rate constant, kobs, was calculated at each inhibitor concentration by fitting the progress curve to the equation P = vi/kobs(1 – e^–kobst), where P is the product formation, vi is the initial velocity, and t is the reaction time. For both enzymes, kobs varied linearly with the inhibitor concentration showing that the dependence of kobs on the inhibitor concentration is nonsaturating. […] The second order rate constant, k2nd, was determined by fitting to the linear equation kobs = (k2nd[I])/(1 + [S]/KM), where [S] is the substrate concentration, [I] is the inhibitor concentration, and KM is the Michaelis–Menten constant. KM values determined for SmCB1 and HuCB were 25 and 38 μM, respectively.

[5] = In vitro plasma stability; assay type: in vitro ADME; conditions: 5 μM inhibitor, pooled human plasma, 30 min, 37°C
Experimental: Finally, we evaluated the metabolic stability of the inhibitors in human plasma in vitro. The stability was expressed as the percentage of parental compound remaining in plasma after 30 min of incubation.
Figure S2. Antischistosomal activity, cytotoxicity, and plasma stability of selected vinyl sulfone inhibitors. A. Induction of phenotypic alterations by the inhibitors was determined with newly transformed schistosomula (NTS) of S. mansoni. The inhibitors were tested at 1 and 10 µM concentrations for 24, 48 and 72 h, and the resulting phenotypes are shown as descriptor s .2 B. Example of an inhibitor-induced phenotype in NTS of S. mansoni versus untreated controls. Images were captured using a Zeiss Axiovert 40 C inverted microscope (10x objective) and a Zeiss AxioCam MRc digital camera controlled by AxioVision 40 (v. 4.8.1.0) software. Scale bar = 0.2 mm. C. Cytotoxicity of the inhibitors towards four human cell lines expressed as % viability vs. untreated cells. Cells were treated with the indicated concentration of the compounds for 72 h and assayed by means of the XTT test (as described previously3). Standard deviation values were within 10% of the mean of tetraplicates. D. In vitro plasma stability was determined for 5 µM inhibitors incubated with pooled human plasma (Biowest) for 30 min at 37°C. The samples were deproteinized by acetonitrile a nd quantified by LC-MS (Exion LC AD/QTrap 6500+, AB Sciex). Data are expressed as a percentage of the remaining parent compound after 30 min incubation; standard deviations of the means ar e gi ve n for duplicate measurements.
(1 picture or pasted object on this page, not shown here)

SmCB1 [6] = target: T1, SmCB1; design: method as in PMID 21832058; conditions: reference compounds; SmCB1, Cbz–Phe–Arg–AMC, pH 5.5; read-out: Inhibition IC50; cited from earlier work

SMILES	severity score ([1]; 1 μM, 24 hours)	severity score ([1]; 1 μM, 48 hours)	severity score ([1]; 1 μM, 72 hours)	severity score ([1]; 10 μM, 24 hours)	severity score ([1]; 10 μM, 48 hours)	severity score ([1]; 10 μM, 72 hours)	kinact/KI (SmCB1 [2])	selectivity ratio (SmCB1 [3])	second order rate constant k2nd HuCB (human cathepsin B (HuCB))	kinact/KI (human cathepsin B (HuCB))	IC50 (SmCB1 [4])	percentage of remaining parent compound in plasma [5]	IC50 (SmCB1 [6])
CCOC(=O)C1CCN(C(=O)N[C@@H](Cc2ccc(O)cc2)C(=O)N[C@H](/C=C/S(=O)(=O)c2ccccn2)CCc2ccccc2)CC1 [WRR-391]	0	0	0	0	0	4	208000 M⁻¹ s⁻¹	~1.4	152 806 M^–1 s^–1	153000 M⁻¹ s⁻¹	~0.2 nM and 0.24 nM	54%	
CN1CCN(C(=O)N[C@@H](Cc2ccccc2)C(=O)N[C@H](/C=C/S(=O)(=O)c2ccccc2)CCc2ccccc2)CC1 [K11777, N-methylpiperazine-phenylalanyl-homophenylalanyl-vinylsulfone-phenyl, reference compound]	0	0	3	0	1	3						88%	2.09 ± 0.08 nM
CCC[C@@H](/C=C/S(=O)(=O)c1ccccc1)NC(=O)[C@H](Cc1ccc2ccccc2c1)NC(=O)N1CCC(N2CCOCC2)CC1 [CRA-547]											~40 nM and 39.2 nM		
O=C(N[C@H](/C=C/S(=O)(=O)c1ccccc1)CCc1ccccc1)[C@H](Cc1ccccc1)NC(=O)N1CCC(N2CCOCC2)CC1 [CRA-554]											6 ± 0.89 nM		
CC(C)C[C@H](NC(=O)N1CCOCC1)C(=O)N[C@H](/C=C/S(=O)(=O)c1ccccc1)CCc1ccccc1 [K11017, morpholino urea-leucyl-homophenylalanyl-vinylsulfone-phenyl]													1.71 ± 0.13 nM
CN1CCN(C(=O)N[C@@H](Cc2ccccc2)C(=O)N[C@H](/C=C/S(=O)(=O)NOCc2ccccc2)CCc2ccccc2)CC1 [WRR-286]	0	0	4	0	4	4	200000 M⁻¹ s⁻¹	about 6.0	33 618 M^–1 s^–1	33600 M⁻¹ s⁻¹	~0.6 nM and 0.61 nM	107%	
C[C@@H](/C=C/S(=O)(=O)Oc1ccccc1)NC(=O)[C@H](Cc1ccccc1)NC(=O)OCc1ccccc1 [WRR-199]											2.55 ± 0.2 nM		
